{"source": "patent US20170143674A1", "about": "“Use of Glutaryl Histamine for the Treatment of Respiratory Tract Diseases” (LTD \"VALENTA-INTELLEKT\", priority 2011, published 2017)", "system": "Staphylococcus aureus (mouse-adapted strain 10)", "assay": "animal or person", "format": "in vivo, mice", "settings": "for Mortality rate (%) / Survival rate (%): tenth day", "experimental": "The tested medicament was glutaryl histamine in doses of 15, 30 and 45 mg/kg. Solutions of the tested medicament for oral administration were prepared ex tempore. Levofloxacin (in oral administration) was used as a therapeutic preparation since this substance was the most experimentally studied antibiotic approved in clinical practice many years ago.\nStaphylococcus aureus (mouse-adaptedstrain 10) was used as an infectious agent. Mice were infected intravenously.\nFirstly, there was determined a lethal dose (LD100) of staphylococcus to be intravenously administered to this line of mice having a certain weight. Fatal cases among mice were registered every day for ten days. The lethal dose was 3×10^8 CFU/mouse. […] For this purpose, mice were housed into cages (10 animals per cage) and infected with a lethal dose of staphylococcus. One hour after each mouse was administered orally levofloxacin in doses of 1, 2, 4, 6, 8, 10, and 12 mg/kg. A group of mice infected with a lethal dose of staphylococcus without the treatment was considered as a control group. Fatal cases among mice were registered every day for ten days.\nThe next step of the experiment was to study an effect of combined administration of glutaryl histamine and levofloxacin on a model of staphylococcal sepsis in mice.\nIn the experiment, mice were housed in following groups (10 animals per cage):\nGlutaryl histamine was administered orally in the corresponding doses to the mice of groups 3, 4, 5, 6, 7, and 8 for 5 days. Five day after, all groups of mice were intravenously administered with 0.2 ml of Staphylococcus aureus in the lethal dose. […] After infection and administration of levofloxacin, glutaryl histamine was administered to mice of groups 3-8 for additional 5 days. During the experiment, the animals were observed every day, and fatal cases were registered (see Table 13)."}
{"smiles": "O=C(O)CCCC(=O)NCCc1c[nH]cn1", "note": "[glutaryl histamine]", "values": [{"measurement": "died/survived animals", "setting": "day 1, glutaryl histamine 15 mg/kg", "value": "0/10"}, {"measurement": "died/survived animals", "setting": "day 1, glutaryl histamine 30 mg/kg", "value": "0/10"}, {"measurement": "died/survived animals", "setting": "day 1, glutaryl histamine 45 mg/kg", "value": "0/10"}, {"measurement": "died/survived animals", "setting": "day 2, glutaryl histamine 15 mg/kg", "value": "0/10"}, {"measurement": "died/survived animals", "setting": "day 2, glutaryl histamine 30 mg/kg", "value": "0/10"}, {"measurement": "died/survived animals", "setting": "day 2, glutaryl histamine 45 mg/kg", "value": "0/10"}, {"measurement": "died/survived animals", "setting": "day 3, glutaryl histamine 15 mg/kg", "value": "0/10"}, {"measurement": "died/survived animals", "setting": "day 3, glutaryl histamine 30 mg/kg", "value": "0/10"}, {"measurement": "died/survived animals", "setting": "day 3, glutaryl histamine 45 mg/kg", "value": "1/9"}, {"measurement": "died/survived animals", "setting": "day 4, glutaryl histamine 15 mg/kg", "value": "1/9"}, {"measurement": "died/survived animals", "setting": "day 4, glutaryl histamine 30 mg/kg", "value": "1/9"}, {"measurement": "died/survived animals", "setting": "day 4, glutaryl histamine 45 mg/kg", "value": "2/8"}, {"measurement": "died/survived animals", "setting": "day 5, glutaryl histamine 15 mg/kg", "value": "2/8"}, {"measurement": "died/survived animals", "setting": "day 5, glutaryl histamine 30 mg/kg", "value": "3/7"}, {"measurement": "died/survived animals", "setting": "day 5, glutaryl histamine 45 mg/kg", "value": "4/6"}, {"measurement": "died/survived animals", "setting": "day 6, glutaryl histamine 15 mg/kg", "value": "3/7"}, {"measurement": "died/survived animals", "setting": "day 6, glutaryl histamine 30 mg/kg", "value": "4/6"}, {"measurement": "died/survived animals", "setting": "day 6, glutaryl histamine 45 mg/kg", "value": "5/5"}, {"measurement": "died/survived animals", "setting": "day 7, glutaryl histamine 15 mg/kg", "value": "4/6"}, {"measurement": "died/survived animals", "setting": "day 7, glutaryl histamine 30 mg/kg", "value": "6/4"}, {"measurement": "died/survived animals", "setting": "day 7, glutaryl histamine 45 mg/kg", "value": "7/3"}, {"measurement": "died/survived animals", "setting": "day 8, glutaryl histamine 15 mg/kg", "value": "6/4"}, {"measurement": "died/survived animals", "setting": "day 8, glutaryl histamine 30 mg/kg", "value": "7/3"}, {"measurement": "died/survived animals", "setting": "day 8, glutaryl histamine 45 mg/kg", "value": "8/2"}, {"measurement": "died/survived animals", "setting": "day 9, glutaryl histamine 15 mg/kg", "value": "7/3"}, {"measurement": "died/survived animals", "setting": "day 9, glutaryl histamine 30 mg/kg", "value": "7/3"}, {"measurement": "died/survived animals", "setting": "day 9, glutaryl histamine 45 mg/kg", "value": "8/2"}, {"measurement": "died/survived animals", "setting": "day 10, glutaryl histamine 15 mg/kg", "value": "8/2"}, {"measurement": "died/survived animals", "setting": "day 10, glutaryl histamine 30 mg/kg", "value": "7/3"}, {"measurement": "died/survived animals", "setting": "day 10, glutaryl histamine 45 mg/kg", "value": "8/2"}, {"measurement": "Mortality rate (%)", "setting": "glutaryl histamine 15 mg/kg", "value": 80, "unit": "%"}, {"measurement": "Survival rate (%)", "setting": "glutaryl histamine 15 mg/kg", "value": 20, "unit": "%"}, {"measurement": "Mortality rate (%)", "setting": "glutaryl histamine 30 mg/kg", "value": 70, "unit": "%"}, {"measurement": "Survival rate (%)", "setting": "glutaryl histamine 30 mg/kg", "value": 30, "unit": "%"}, {"measurement": "Mortality rate (%)", "setting": "glutaryl histamine 45 mg/kg", "value": 80, "unit": "%"}, {"measurement": "Survival rate (%)", "setting": "glutaryl histamine 45 mg/kg", "value": 20, "unit": "%"}]}
